Values quoted from earlier work in patent US10166212B2, “Oral use of zinc and copper gluconates in the treatment of digital dermatitis” (DANTRACE, priority 2015, dated 2019).

How the values were obtained:
[1] = tested on: digital dermatitis lesions
[2] = administered as pills of zinc oxide; remainder excreted in feces

Row | SMILES | healing rate, treatment vs. control group ([1]; by day 34, P=0.01) | overall positive effect (healing and improvement), treatment vs. control ([1]; by day 34, P=0.05) [fold] | healing rate (change to M0) ([1]; by day 34 post-treatment, 10 g salicylic acid powder in bandage vs chlortetracycline spray control) [%] | proportion of lesions getting smaller, treatment vs. control ([1]; by days 14 and 34, P<0.08) [times] | healing rates between treatment groups ([1]; days 3 and 14) | zinc taken up by the digestive system [2] [%]
1 | O=C(O)c1ccccc1O [salicylic acid] | fivefold better | 1.75 | 13.6 | 2.5 | did not differ significantly | 
2 | [O]=[Zn] [zinc oxide] |  |  |  |  |  | 20
